According to publication PMC11369887 (RSC Advances, 2024):
Where two headings read alike, the source gives them in different places.

Experiments:
[1] = tested on: human liver cancer (Hep3B) cell line; test: MTT cytotoxicity assay, Hep3B; settings: 48 h, read-out: Cytotoxicity IC50 Hep3B
Method: (§2) The newly synthesized compounds were evaluated for their in vitro growth inhibition of three human tumor cell lines representing different tumor types, namely, breast adenocarcinoma (MCF-7), liver hepatocellular carcinoma (Hep3B) and leukemia-SR. […] The breast tumor cell line (MCF-7), hepatic tumor cell line (Hep3B) and leukemia-SR cell line were obtained from American Type Culture Collection. The cells were cultured using Dulbecco's modified Eagle's medium (DMEM) (Invitrogen/Life Technologies) supplemented with 10% fetal bovine serum (FBS) (Hyclone), 10 μg mL^−1 of insulin (Sigma), and 1% penicillin–streptomycin. […] For 24 hours before to the MTT experiment, plate cells (densities of 1.2–1.8 × 10 000 cells per well) were layered in a 96-well plate containing 100 μL of the tested chemical per well and 100 μL of full growth media.
(§3) The culture medium was transferred to a centrifuge tube. […] Then 2.0 to 3.0 mL of Trypsin EDTA solution was added to the flask, and the cells were observed using an inverted microscope until the cell layer became dispersed (usually within 5–15 min). After that, 6.0 to 8.0 mL of complete growth medium was added and the cells were aspirated by gently pipetting. The cell suspension was transferred to the centrifuge tube with the medium and cells from step 1 and centrifuged at approximately 125 g for 5–10 min. The supernatant was discarded. The cell pellet was re-suspended in a fresh growth medium. Appropriate aliquots of the cell suspension were added to new culture vessels.
(§4) For the best results, the cells in the log phase of growth should be employed and the final cell number should not exceed 10^6 cells per cm^2. Each test should include a blank containing a complete medium without cells. Cultures from the incubator were transferred into a laminar flow hood or other sterile work area. […] Reconstituted MTT was added in an amount equal to 10% of the culture medium volume. Cultures were returned to the incubator for 2–4 h depending on the cell type and maximum cell density. An incubation period of 2 h is generally adequate but may be lengthened for low cell densities or cells with lower metabolic activity. The incubation times should be consistent when making comparisons. […] Occasionally, especially in dense cultures, pipetting up and down may be required to completely dissolve the MTT formazan crystals. The absorbance was spectrophotometrically measured at a wavelength of 570 nm. The background absorbance of multiwell plates was measured at 690 nm and subtracted from the 450 nm measurement. Tests performed in multiwell plates might be read using an appropriate type of plate reader or the contents of individual wells might be transferred to appropriate size cuvettes for spectrophotometric measurement.

[2] = tested on: leukemia (L-SR) cell line; test: MTT cytotoxicity assay, L-SR; settings: 48 h, read-out: Cytotoxicity IC50 L-SR
Method: as §2, §3, §4

[3] = tested on: human breast cancer (MCF-7) cell line; test: MTT cytotoxicity assay, MCF-7; settings: read-out: Cytotoxicity IC50 MCF-7
Method: as §2, §3, §4

[4] = biological target: T1, human DNA topoisomerase II beta (Topo2β) (Homo sapiens, UniProt Q02880); test: Topo2β polymerase inhibition assay (ELISA), Hep3B; format: cell-based; set-up: concentration or dose not given beside the values; settings: against Hep3B cell line
Method: (§1) This assay was employed to predict the inhibitory effects of novel compounds on Topo2β. […] The melting points were determined using a Stuart apparatus, and the values given are uncorrected. IR spectra were recorded using a Shimadzu IR 4000s spectrophotometer (KBr, cm^−1) at the College of Pharmaceutical Sciences and Drug Manufacturing, Misr University for Science and Technology, Egypt. ^1H NMR spectra were recorded using a Bruker 400 MHz (Bruker Corp., Billerica, MA, USA) spectrophotometer, Faculty of Pharmacy, Cairo University, Cairo, Egypt and the Centre of Drug Discovery Research & Development, Faculty of Pharmacy, Ain shams University, and a Jeol 500 MHz spectrophotometer at the National Research Center. Chemical shifts were recorded in ppm on a δ scale, coupling constants (J) were given in Hz and peak multiplicities are designed as follows: s, singlet; d, doublet; t, triplet; m, multiplet. ^13C NMR spectra were recorded using a Bruker 100 MHz spectrophotometer, Faculty of Pharmacy, Cairo University and the Centre of Drug Discovery Research & Development, Faculty of Pharmacy, Ain shams University, and a Jeol 500 MHz spectrophotometer at the National Research Center. Chemical shifts were recorded in ppm on a δ scale. Microanalyses for C, H, and N were carried out at the Regional Center for Mycology and Biotechnology, Faculty of Pharmacy, Al-Azhar University. C, H, and N analysis values were accepted within the range of ± 0.4 of the calculated percentages. […] The used eluting system was methanol : hexane with a ratio of 9.5/0.5 respectively. Scientific microwave MAS-II was used under 300 W microwave irradiation, operating at 80 °C. The evaluation of the cytotoxic activity was performed at VACSERA, Giza, Egypt, using MCF-7, Hep3B and leukemia SR cell lines. Enzyme assay, cell cycle analysis, apoptosis and caspase-3 assay were carried out at VACSERA, Giza, Egypt using an SEB870Hu 96 Tests Enzyme-linked Immunosorbent Assay Kit for Topoisomerase II Beta.
This assay employs a quantitative sandwich enzyme immunoassay technique. […] Antibody specific for Topo2β was pre-coated onto a microplate. Standards and samples were pipetted into the wells and any Topo2β present was bound by the immobilized antibody. After removing any unbound substances, a biotin-conjugated antibody specific for Topo2β was added to the wells. After washing, avidin-conjugated Horseradish Peroxidase (HP) was added to the wells. Following washing to remove any unbound avidin–enzyme reagent, a substrate solution was added to the wells and color develops in proportion to the amount of Topo2β bound in the initial step. The color development was stopped, and the intensity of the color was measured. […] The sensitivity of this assay or lower limit of detection (LLD) is defined as the lowest protein concentration that could be differentiated from zero. The mean OD value of 20 replicates of the zero standard was determined and added to their three standard deviations.[64]

[5] = biological target: T1, human DNA topoisomerase II beta (Topo2β); test: Topo2β polymerase inhibition assay (ELISA), L-SR; format: cell-based; set-up: endogenous in cells; host or cells: MCF-7 (A4), Hep3B (A5), L-SR (A6) human cancer cell lines; settings: against L-SR cell line
Method: as §1
This assay employs a quantitative sandwich enzyme immunoassay technique. […] Antibody specific for Topo2β was pre-coated onto a microplate. Standards and samples were pipetted into the wells and any Topo2β present was bound by the immobilized antibody. After removing any unbound substances, a biotin-conjugated antibody specific for Topo2β was added to the wells. After washing, avidin-conjugated Horseradish Peroxidase (HP) was added to the wells. […] The color development was stopped, and the intensity of the color was measured. […] The mean OD value of 20 replicates of the zero standard was determined and added to their three standard deviations.[64]

in vitro = settings: human, THLE2 normal liver cells
Method: The following normal cell lines were selected: normal breast MCF-10a, normal liver THLE2 and normal lymphocyte PCS-800-011. […] Moreover, the toxic effect of representative target compounds was evaluated on normal breast (MCF10a), normal liver (THLE2) and normal lymphocyte (PCS-800-011) cell lines using an MTT assay. […] The cells were cultured using Dulbecco's modified Eagle's medium (DMEM) (Invitrogen/Life Technologies) supplemented with 10% fetal bovine serum (FBS) (Hyclone), 10 μg mL^−1 of insulin (Sigma), and 1% penicillin–streptomycin. All chemicals and reagents were purchased from Sigma-Aldrich or Invitrogen. For 24 hours before to the MTT experiment, plate cells (densities of 1.2–1.8 × 10 000 cells per well) were layered in a 96-well plate containing 100 μL of the tested chemical per well and 100 μL of full growth media.
as §3, §4

[6] = MCF-7 cell line, MTT assay, 48 h

T1 sequence (Q02880 whole entry): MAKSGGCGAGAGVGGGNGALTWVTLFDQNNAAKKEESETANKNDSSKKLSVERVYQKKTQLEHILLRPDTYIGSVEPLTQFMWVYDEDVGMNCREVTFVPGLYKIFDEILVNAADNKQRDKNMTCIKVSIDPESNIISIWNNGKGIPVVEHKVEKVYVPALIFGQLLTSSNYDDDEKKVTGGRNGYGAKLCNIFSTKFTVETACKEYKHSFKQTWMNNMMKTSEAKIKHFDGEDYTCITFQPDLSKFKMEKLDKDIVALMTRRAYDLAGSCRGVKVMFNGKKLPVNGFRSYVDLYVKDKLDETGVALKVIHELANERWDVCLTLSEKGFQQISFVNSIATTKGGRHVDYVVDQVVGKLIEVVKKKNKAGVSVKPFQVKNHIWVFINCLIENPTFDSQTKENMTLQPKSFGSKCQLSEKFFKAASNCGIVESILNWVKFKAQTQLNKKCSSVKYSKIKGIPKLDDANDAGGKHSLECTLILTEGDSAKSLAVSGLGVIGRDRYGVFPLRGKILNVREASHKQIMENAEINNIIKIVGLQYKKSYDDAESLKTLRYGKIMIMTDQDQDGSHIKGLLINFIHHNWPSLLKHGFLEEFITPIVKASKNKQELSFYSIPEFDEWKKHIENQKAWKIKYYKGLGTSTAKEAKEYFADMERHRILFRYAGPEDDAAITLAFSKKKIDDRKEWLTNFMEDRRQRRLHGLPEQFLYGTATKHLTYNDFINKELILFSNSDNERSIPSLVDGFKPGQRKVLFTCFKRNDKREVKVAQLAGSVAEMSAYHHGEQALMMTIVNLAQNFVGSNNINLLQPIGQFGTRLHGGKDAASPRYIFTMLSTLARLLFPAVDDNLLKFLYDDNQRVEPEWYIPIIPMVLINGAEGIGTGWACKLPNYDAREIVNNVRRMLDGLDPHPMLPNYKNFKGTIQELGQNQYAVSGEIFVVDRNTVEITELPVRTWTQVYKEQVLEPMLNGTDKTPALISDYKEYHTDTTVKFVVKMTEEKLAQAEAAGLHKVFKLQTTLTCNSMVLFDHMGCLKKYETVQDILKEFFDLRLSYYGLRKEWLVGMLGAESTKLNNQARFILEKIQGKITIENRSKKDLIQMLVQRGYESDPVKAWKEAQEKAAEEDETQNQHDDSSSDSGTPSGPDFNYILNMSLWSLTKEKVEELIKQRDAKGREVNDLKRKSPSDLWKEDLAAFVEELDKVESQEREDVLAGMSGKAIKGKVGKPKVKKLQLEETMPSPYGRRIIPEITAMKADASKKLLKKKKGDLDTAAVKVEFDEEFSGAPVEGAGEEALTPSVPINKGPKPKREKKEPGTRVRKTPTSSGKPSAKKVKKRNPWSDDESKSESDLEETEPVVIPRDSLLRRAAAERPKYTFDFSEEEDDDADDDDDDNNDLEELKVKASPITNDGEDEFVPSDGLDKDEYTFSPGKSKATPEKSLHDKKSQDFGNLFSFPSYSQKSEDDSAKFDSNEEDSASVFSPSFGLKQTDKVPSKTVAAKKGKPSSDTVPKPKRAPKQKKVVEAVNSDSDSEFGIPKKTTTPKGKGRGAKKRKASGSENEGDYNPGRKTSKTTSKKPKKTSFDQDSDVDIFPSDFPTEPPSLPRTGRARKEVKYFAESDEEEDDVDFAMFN

| Compound | IC50 ([1]; Homo sapiens, Hep3B) [µM] | IC50 ([2]; Homo sapiens) [µM] | IC50 ([3]; Homo sapiens, MCF7, 48 h) [µM] | melting point [°C] | IC50 ([1]; Hep3B cell line, MTT assay) [µM] | IC50 ([2]; L-SR cell line, MTT assay) [µM] | IC50 [3, 6] [µM] | Topo2β% inhibition [4] [%] | Topo2β% inhibition [5] [%] | IC50 at 48 h (in vitro) [µM] |
| --- | --- | --- | --- | --- | --- | --- | --- | --- | --- | --- |
| CC1COc2c(N3CCN(C)CC3)c(F)cc3c(=O)c(C(=O)NN=C4C(=O)Nc5ccccc54)cn1c23 (centres unmarked) [Compound 4a, 9-Fluoro-3-methyl-10-(4-methylpiperazin-1-yl)-7-oxo-N′-(2-oxoindolin-3-ylidene)-2,3-dihydro-7H-[1,4]oxazino[2,3,4-ij]quinoline-6-carbohydrazide] | 18.7 ± 0.87 | 49.6 ± 2.99 | 39.1 ± 1.81 | > 300 | – | – | – | – | – | – |
| CC1COc2c(N3CCN(C)CC3)c(F)cc3c(=O)c(C(=O)NN=C4C(=O)Nc5ccc(Br)cc54)cn1c23 (centres unmarked) [Compound 4b, N′-(5-Bromo-2-oxoindolin-3-ylidene)-9-fluoro-3-methyl-10-(4-methylpiperazin-1-yl)-7-oxo-2,3-dihydro-7H-[1,4]oxazino[2,3,4-ij]quinoline-6-carbohydrazide] | 8.79 ± 0.41 | 10.9 ± 0.66 | 5.59 ± 0.26 | > 300 | – | – | – | – | – | – |
| CC1COc2c(N3CCN(C)CC3)c(F)cc3c(=O)c(C(=O)N4CCN(c5ccccc5)CC4)cn1c23 (centres unmarked) [Compound 13d, 9-Fluoro-3-methyl-10-(4-methylpiperazin-1-yl)-6-((4-phenylpiperazin-1-yl)carbonyl)-2,3-dihydro-7H-[1,4]oxazino[2,3,4-ij]quinolin-7-one] | 24.5 ± 1.14 | 15.1 ± 0.91 | 9.59 ± 0.44 | 246 to 248 | – | – | – | – | – | – |
| N-(4-Chlorobenzylidene)-2-[(9-fluoro-3-methyl-10-(4-methylpiperazin-1-yl)-7-oxo-2,3-dihydro-7H-[1,4]oxazino[2,3,4-ij]quinoline-6-carbonyl)]hydrazine-1-carbothioamide [Compound 11a] | – | – | – | – | 80.2 ± 3.71 | 19.9 ± 1.2 | 54.5 ± 2.52 | – | – | – |
| CC1COc2c(N3CCN(C)CC3)c(F)cc3c(=O)c(C(=O)N4CCOCC4)cn1c23 (centres unmarked) [Compound 13b, 9-Fluoro-3-methyl-10-(4-methylpiperazin-1-yl)-6-((morpholin-4-yl)carbonyl)-2,3-dihydro-7H-[1,4]oxazino[2,3,4-ij]quinolin-7-one] | 11.2 ± 0.52 | 18.3 ± 1.11 | 26.8 ± 1.24 | 235 to 237 | – | – | – | – | – | – |
| CC1COc2c(N3CCN(C)CC3)c(F)cc3c(=O)c(C(=O)N4CCCCC4)cn1c23 (centres unmarked) [Compound 13a, 9-Fluoro-3-methyl-10-(4-methylpiperazin-1-yl)-6-((piperidin-1-yl)carbonyl)-2,3-dihydro-7H-[1,4]oxazino[2,3,4-ij]quinolin-7-one] | 3.46 ± 0.16 | 3.12 ± 0.19 | 12.1 ± 0.56 | 238 to 240 | – | – | – | 68.77 | 69.38 | 29.9 ± 1.68 |
| CC1COc2c(N3CCN(C)CC3)c(F)cc3c(=O)c(C(=O)NN=C4C(=O)Nc5ccc(Cl)cc54)cn1c23 (centres unmarked) [Compound 4c, N′-(5-Chloro-2-oxoindolin-3-ylidene)-9-fluoro-3-methyl-10-(4 methylpiperazin-1-yl)-7-oxo-2,3-dihydro-7H-[1,4]oxazino[2,3,4-ij]quinoline-6-carbohydrazide] | 36.3 ± 1.68 | 4.32 ± 0.26 | 15.8 ± 0.76 | > 300 | – | – | – | – | – | – |
| CC1COc2c(N3CCN(C)CC3)c(F)cc3c(=O)c(C(=O)NN=Cc4ccc(F)cc4)cn1c23 (centres unmarked) [Compound 3b, 9-Fluoro-N′-(4-fluorobenzylidene)-3-methyl-10-(4-methylpiperazin-1-yl)-7-oxo-2,3-dihydro-7H-[1,4]oxazino[2,3,4-ij]quinoline-6-carbohydrazide] | 12 ± 0.39 | 5.64 ± 0.27 | 63 ± 2.8 | 266 to 268 | – | – | – | – | – | – |
| CC1COc2c(N3CCN(C)CC3)c(F)cc3c(=O)c(C(=O)NN4C(=O)c5ccccc5C4=O)cn1c23 (centres unmarked) [Compound 9, 9-Fluoro-3-methyl-10-(4-methylpiperazin-1-yl)-7-oxo-N-(1,3-dioxoisoindolin-2-yl)-2,3-dihydro-7H-[1,4]oxazino[2,3,4-ij]quinoline-6-carboxamide] | 42.2 ± 1.96 | 23.4 ± 1.41 | 19.3 ± 0.9 | 138 to 140 | – | – | – | – | – | – |
| 2-[(9-Fluoro-3-methyl-10-(4-methylpiperazin-1-yl)-7-oxo-2,3-dihydro-7H-[1,4]oxazino[2,3,4-ij]quinoline-6-carbonyl)]N-(4-methoxybenzylidene)hydrazine-1-carbothioamide [Compound 11b] | – | – | – | – | 14.6 ± 0.67 | 40.3 ± 2.43 | 15.5 ± 0.72 | – | – | – |
| CC1COc2c(N3CCN(C)CC3)c(F)cc3c(=O)c(C(=O)NN=Cc4ccc(Cl)cc4)cn1c23 (centres unmarked) [Compound 3a, N′-(4-Chlorobenzylidene)-9-fluoro-3-methyl-10-(4-methylpiperazin-1-yl)-7-oxo-2,3-dihydro-7H-[1,4]oxazino[2,3,4-ij]quinoline-6-carbohydrazide] | 24.7 ± 0.81 | 2.75 ± 0.07 | 24.8 ± 1.61 | 260 to 262 | – | – | – | – | – | – |
| 2-[(9-Fluoro-3-methyl-10-(4-methylpiperazin-1-yl)-7-oxo-2,3-dihydro-7H-[1,4]oxazino[2,3,4-ij]quinoline-6-carbonyl)]-N-(1-(4-methoxyphenyl)ethylidene)hydrazine-1-carbothioamide [Compound 12a] | – | – | – | – | 23.6 ± 1.09 | 23.8 ± 1.43 | 45.4 ± 2.1 | – | – | – |
| CC1COc2c(N3CCN(C)CC3)c(F)cc3c(=O)c(C(=O)N4CCN(C)CC4)cn1c23 (centres unmarked) [Compound 13c, 9-Fluoro-3-methyl-10-(4-methylpiperazin-1-yl)-6-((4-methylpiperazin-1-yl)carbonyl)-2,3-dihydro-7H-[1,4]oxazino[2,3,4-ij]quinolin-7-one] | 1.04 ± 0.05 | 13.6 ± 0.82 | 7.26 ± 0.34 | 239 to 241 | – | – | – | 70.93 | – | 24 ± 1.35 |
| CC1COc2c(N3CCN(C)CC3)c(F)cc3c(=O)c(C(=O)N4NC(=O)CC4=O)cn1c23 (centres unmarked) [Compound 8, 9-Fluoro-6-((3,5-dioxopyrazolidine-1-yl)carbonyl)-3-methyl-10-(4-methylpiperazin-1-yl)-2,3-dihydro-7H-[1,4]oxazino[2,3,4-ij]quinolin-7-one] | 7.69 ± 0.36 | 5.49 ± 0.33 | 3.51 ± 0.16 | 228 to 230 | – | – | – | – | – | – |
| N-(1-(3,4-Dimethoxyphenyl)ethylidene)-2-[(9-fluoro-3-methyl-10-(4-methylpiperazin-1-yl)-7-oxo-2,3-dihydro-7H-[1,4]oxazino[2,3,4-ij]quinoline-6-carbonyl)]hydrazine-1-carbothioamide [Compound 12b] | – | – | – | – | 17.6 ± 0.81 | 34.2 ± 2.06 | 5.21 ± 0.24 | – | – | – |
| CC1COc2c(N3CCN(C)CC3)c(F)cc3c(=O)c(C(=O)NNC(N)=S)cn1c23 (centres unmarked) [Compound 10, 2-[(9-Fluoro-3-methyl-10-(4-methylpiperazin-1-yl)-7-oxo-2,3-dihydro-7H-[1,4]oxazino[2,3,4-ij]quinoline-6-carbonyl)]hydrazin-1-carbothioamide] | 37.9 ± 1.76 | 66 ± 3.98 | 95.4 ± 4.42 | > 300 | – | – | – | – | – | – |
